Some test systems named below: Adult mice; C57 mice; Ldlr^−/− mice.
Conditions in all cases: mouse, in vivo

The text below walks through data of patent publication US20250281645A1, “Lentiviral Vector” (Ospedale San Raffaele S.r.l., priority 2022, published 2025).

Experimental for C57 mice: (§1) (a) Experimental design: 8 weeks old mice C57 or Ldlr^−/− (n=4-6 per each condition) are injected with Bortezomib and/or Marl and/or fasted for 24 hours, before receiving LV (dose 2.75×10^10 TU/Kg) i.v. Then, hFIX is monitored in treated mice longitudinally. (b, c) Mean with SEM of hFIX antigen measured in the plasma of LV treated mice over time (4 and 26 wk post LV timepoint). Two-way ANOVA with Dunnett's multiple comparisons test vs LV control, performed for each of the two strains used.
(§2) According to the groups, mice were either faster for 24 hours, injected with Marl 3 hours before LV and/or injected with Bortezomib 1-hour before LV. Circulating hFIX amounts were then monitored longitudinally (FIG. 11A).
Wild-type C57Bl/6 adults, Ldlr/adults, Alb-F8*R593C adults, Ldlr^−/− 2-week old mice and C57 BI/6 2-week old were used in these studies. Founder B6; 129S-7-Ldlrtm1 Her/J mice (referred to as Ldlr^−/−) were obtained from the Jackson Laboratories (stock #:002207). […] C57BL/6 mice were purchased from Jackson laboratories (stock #000664). […]
(§3) hFIX ELISA assay was used to assess hFIX concentration in mouse plasma samples (Affinity Biologicals, FIX-EIA), in accordance with the manufacturer's protocol. Absorbance of each sample was determined spectrophotometrically, using a Multiskan GO microplate reader (Thermo Fisher Scientific) and normalized to antigen standard curves.
Experimental for Ldlr^−/− mice: as §1, §2
Wild-type C57Bl/6 adults, Ldlr/adults, Alb-F8*R593C adults, Ldlr^−/− 2-week old mice and C57 BI/6 2-week old were used in these studies. Founder B6; 129S-7-Ldlrtm1 Her/J mice (referred to as Ldlr^−/−) were obtained from the Jackson Laboratories (stock #:002207). […] C57BL/6 mice were purchased from Jackson laboratories (stock #000664). […] LV was administered in adult mice, males and females (7-10-weeks of age), through either tail vein or retro-orbital plexus (250-500 μL/mouse). LV was administered in juvenile mice (2 weeks of age) through retro-orbital plexus (100-200 μL/mouse). Mice were bled from the retro-orbital plexus through capillary tubes. Blood was collected in 0.38% sodium citrate buffer, pH 7.4. […] For fasting experiments, mice were starved for 24-hours and then treated or not with LV. For experiments with Bortezomib (Velcade), the drug (1 mg/kg) was administered, once diluted in saline, i.v. 1 hour before LV administration. […]
as §3

With `CC(C)C[C@H](NC(=O)[C@H](Cc1ccccc1)NC(=O)c1cnccn1)B(O)O` [Bortezomib], in the series with Adult mice, the “VCN in KC” value is on record as “reduced VCN”, the “VCN in LSEC” value was “increase”, the VCN in hepatocytes entry is recorded as “trend of increase” and the “VCN in pDC” value is given as “reduced VCN”. Moreover, the “hFIX circulating amounts versus controls” value in the series on Adult mice (iv) is given as “higher than controls”. In the series on C57 mice, the “transgene output in combination with fasting, versus LV controls” value is 11-12 fold. Moreover, in the series on C57 mice (iv), the “transgene output compared to LV only, single treatment” value is on record as “enhanced transgene output”. For the same compound, in the series on Ldlr^−/− mice, the “overall increase in transgene output, combination of fasting and Bortezomib” value is on record as 4.5-6 fold; the “transgene output when combined with fasting, compared to use as single treatments” value is on record as “milder increase in Ldlr^−/− than C57”; the “transgene output, single treatment” value was “give an advantage”.
